# What was measured:
# THZ1 = compound: CN(C)C/C=C/C(=O)Nc1ccc(C(=O)Nc2cccc(Nc3ncc(Cl)c(-c4c[nH]c5ccccc45)n3)c2)cc1 [THZ1]; test: GR value, 72 h; higher = faster growth (1 = untreated, <0 = killing);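 further: breast cancer and non-malignant breast epithelial lines, nine half-log doses, viable cells counted by Hoechst and LIVE/DEAD dye imaging versus time-zero plates and DMSO controls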
# LEE011/Ribociclib = compound: CN(C)C(=O)c1cc2cnc(Nc3ccc(N4CCNCC4)cn3)nc2n1C1CCCC1 [LEE011/Ribociclib]; test: as above
# YKL-5-124 = compound: C=CC(=O)Nc1ccc(C(=O)Nc2[nH]nc3c2CN(C(=O)N[C@H](CN(C)C)c2ccccc2)C3(C)C)cc1 [YKL-5-124]; test: as above
# [1] = compound: CCN1CCN(Cc2ccc(Nc3ncc(F)c(-c4cc(F)c5nc(C)n(C(C)C)c5c4)n3)nc2)CC1; test: as above
# Flavopiridol [2] = compound: T1, CN1CC[C@H](c2c(O)cc(O)c3c(=O)cc(-c4ccccc4Cl)oc23)[C@H](O)C1 [Flavopiridol]; test: as above
# THZ531 = compound: CN(C)C/C=C/C(=O)Nc1ccc(C(=O)N2CCC[C@@H](Nc3ncc(Cl)c(-c4c[nH]c5ccccc45)n3)C2)cc1 [THZ531]; test: as above
# [3] = compound: CCc1cnn2c(NCc3ccc[n+]([O-])c3)cc(N3CCCC[C@H]3CCO)nc12; test: as above
# [4] = compound: CC(=O)c1c(C)c2cnc(Nc3ccc(N4CCNCC4)cn3)nc2n(C2CCCC2)c1=O; test: as above
# Neratinib/HKI272 = compound: CCOc1cc2ncc(C#N)c(Nc3ccc(OCc4ccccn4)c(Cl)c3)c2cc1NC(=O)/C=C/CN(C)C [Neratinib/HKI272]; test: as above
# BSJ-03-123 = compound: CC(=O)c1c(C)c2cnc(Nc3ccc(N4CCN(CCOCCOCCOCCNC(=O)COc5cccc6c5C(=O)N(C5CCC(=O)NC5=O)C6=O)CC4)cn3)nc2n(C2CCCC2)c1=O [BSJ-03-123]; test: as above
# [5] = compound: CCN1CCN(Cc2ccc(Nc3ncc(F)c(-c4cc(F)c5nc(C)n(C(C)C)c5c4)n3)nc2)CC1; test: increase in dead-cell fraction, 72 h; higher = more death;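 further: breast cancer cell lines in 384-well plates, stained with Hoechst plus LIVE/DEAD far red dye and imaged, cells above an LDR intensity threshold counted dead, Hoechst-negative corpses included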
# Flavopiridol [6] = compound: T1, Flavopiridol; test: as above
cell line,measurement,setting,value
EVSAT,GR value,THZ1; 0.0001 µM,1.02 GR
same,GR value,THZ1; 0.0003162 µM,0.993 GR
same,GR value,THZ1; 0.001 µM,0.991 GR
same,GR value,THZ1; 0.003162 µM,0.946 GR
same,GR value,THZ1; 0.01 µM,0.975 GR
same,GR value,THZ1; 0.03162 µM,0.705 GR
same,GR value,THZ1; 0.1 µM,0.232 GR
same,GR value,THZ1; 0.3162 µM,-0.363 GR
same,GR value,LEE011/Ribociclib; 0.001 µM,0.968 GR
same,GR value,LEE011/Ribociclib; 0.003162 µM,0.932 GR
same,GR value,LEE011/Ribociclib; 0.01 µM,0.956 GR
same,GR value,LEE011/Ribociclib; 0.03162 µM,0.939 GR
same,GR value,LEE011/Ribociclib; 0.1 µM,0.901 GR
same,GR value,LEE011/Ribociclib; 0.3162 µM,0.821 GR
same,GR value,LEE011/Ribociclib; 1 µM,0.862 GR
same,GR value,LEE011/Ribociclib; 3.162 µM,0.813 GR
same,GR value,LEE011/Ribociclib; 10 µM,0.616 GR
same,GR value,YKL-5-124; 0.001 µM,0.327 GR
same,GR value,YKL-5-124; 0.003162 µM,0.292 GR
same,GR value,YKL-5-124; 0.01 µM,0.215 GR
same,GR value,YKL-5-124; 0.03162 µM,0.13 GR
same,GR value,YKL-5-124; 0.1 µM,0.0905 GR
same,GR value,YKL-5-124; 0.3162 µM,0.0313 GR
same,GR value,YKL-5-124; 1 µM,0.019 GR
same,GR value,YKL-5-124; 3.162 µM,-0.0275 GR
same,GR value,YKL-5-124; 10 µM,-0.412 GR
same,GR value,[1]; 0.001 µM,0.973 GR
same,GR value,[1]; 0.003162 µM,0.947 GR
same,GR value,[1]; 0.01 µM,0.933 GR
same,GR value,[1]; 0.03162 µM,0.853 GR
same,GR value,[1]; 0.1 µM,0.761 GR
same,GR value,[1]; 0.3162 µM,0.679 GR
same,GR value,[1]; 1 µM,0.521 GR
same,GR value,[1]; 3.162 µM,0.393 GR
same,GR value,[1]; 10 µM,-0.545 GR
same,GR value,Flavopiridol [2]; 0.0001 µM,1.01 GR
same,GR value,Flavopiridol [2]; 0.0003162 µM,1.06 GR
same,GR value,Flavopiridol [2]; 0.001 µM,1.02 GR
same,GR value,Flavopiridol [2]; 0.003162 µM,0.984 GR
same,GR value,Flavopiridol [2]; 0.01 µM,0.925 GR
same,GR value,Flavopiridol [2]; 0.03162 µM,0.97 GR
same,GR value,Flavopiridol [2]; 0.1 µM,0.917 GR
same,GR value,Flavopiridol [2]; 0.3162 µM,0.619 GR
same,GR value,Flavopiridol [2]; 1 µM,-0.514 GR
same,GR value,THZ531; 0.0001 µM,0.995 GR
same,GR value,THZ531; 0.0003162 µM,0.952 GR
same,GR value,THZ531; 0.001 µM,1 GR
same,GR value,THZ531; 0.003162 µM,1.01 GR
same,GR value,THZ531; 0.01 µM,1.07 GR
same,GR value,THZ531; 0.03162 µM,1.06 GR
same,GR value,THZ531; 0.1 µM,0.745 GR
same,GR value,THZ531; 0.3162 µM,0.0467 GR
same,GR value,[3]; 0.0001 µM,0.951 GR
same,GR value,[3]; 0.0003162 µM,0.967 GR
same,GR value,[3]; 0.001 µM,0.959 GR
same,GR value,[3]; 0.003162 µM,0.994 GR
same,GR value,[3]; 0.01 µM,1.01 GR
same,GR value,[3]; 0.03162 µM,0.299 GR
same,GR value,[4]; 0.0003162 µM,1.02 GR
same,GR value,[4]; 0.001 µM,1 GR
same,GR value,[4]; 0.003162 µM,0.994 GR
same,GR value,[4]; 0.01 µM,0.974 GR
same,GR value,[4]; 0.03162 µM,0.863 GR
same,GR value,[4]; 0.1 µM,0.792 GR
same,GR value,[4]; 0.3162 µM,0.752 GR
same,GR value,[4]; 1 µM,0.671 GR
same,GR value,[4]; 3.162 µM,0.637 GR
same,GR value,Neratinib/HKI272; 0.0003162 µM,0.99 GR
same,GR value,Neratinib/HKI272; 0.001 µM,1.02 GR
same,GR value,Neratinib/HKI272; 0.003162 µM,1.01 GR
same,GR value,Neratinib/HKI272; 0.01 µM,0.991 GR
same,GR value,Neratinib/HKI272; 0.03162 µM,0.978 GR
same,GR value,Neratinib/HKI272; 0.1 µM,0.909 GR
same,GR value,Neratinib/HKI272; 0.3162 µM,0.895 GR
same,GR value,Neratinib/HKI272; 1 µM,0.822 GR
same,GR value,Neratinib/HKI272; 3.162 µM,0.676 GR
same,GR value,BSJ-03-123; 0.001 µM,0.994 GR
same,GR value,BSJ-03-123; 0.003162 µM,0.961 GR
same,GR value,BSJ-03-123; 0.01 µM,0.922 GR
same,GR value,BSJ-03-123; 0.03162 µM,0.885 GR
same,GR value,BSJ-03-123; 0.1 µM,0.851 GR
same,GR value,BSJ-03-123; 0.3162 µM,0.819 GR
same,GR value,BSJ-03-123; 1 µM,0.724 GR
same,GR value,BSJ-03-123; 3.162 µM,0.67 GR
same,GR value,BSJ-03-123; 10 µM,0.0632 GR
same,increase in dead-cell fraction,[5]; 0.001 µM,-0.0003
same,increase in dead-cell fraction,[5]; 0.003162 µM,-0.0008
same,increase in dead-cell fraction,[5]; 0.01 µM,-0.0013
same,increase in dead-cell fraction,[5]; 0.03162 µM,0.0044
same,increase in dead-cell fraction,[5]; 0.1 µM,0.0048
same,increase in dead-cell fraction,[5]; 0.3162 µM,0.0122
same,increase in dead-cell fraction,[5]; 1 µM,0.0226
same,increase in dead-cell fraction,[5]; 3.162 µM,0.0299
same,increase in dead-cell fraction,[5]; 10 µM,0.798
same,increase in dead-cell fraction,Flavopiridol [6]; 0.0001 µM,0
same,increase in dead-cell fraction,Flavopiridol [6]; 0.0003162 µM,-0.0027
same,increase in dead-cell fraction,Flavopiridol [6]; 0.001 µM,-0.0029
same,increase in dead-cell fraction,Flavopiridol [6]; 0.003162 µM,0.0039
same,increase in dead-cell fraction,Flavopiridol [6]; 0.01 µM,0.0011
same,increase in dead-cell fraction,Flavopiridol [6]; 0.03162 µM,0.0016
same,increase in dead-cell fraction,Flavopiridol [6]; 0.1 µM,0.0006
same,increase in dead-cell fraction,Flavopiridol [6]; 0.3162 µM,0.0111
same,increase in dead-cell fraction,Flavopiridol [6]; 1 µM,0.85

# Reference: the supplement of paper PMC9663587
